Reference: patent publication US11629127B2, “Drug-induced activation of the Reelin signaling system” (UNIVERSITY OF SOUTH FLORIDA, priority 2017, dated 2023)

Target: T1, ApoER2 (Homo sapiens, UniProt Q14114)
T1 construct: expressed in transfected cells; host or cells: HEK293 (named only through the non-transfected controls)
T1 sequence (Q14114 33-963) 1: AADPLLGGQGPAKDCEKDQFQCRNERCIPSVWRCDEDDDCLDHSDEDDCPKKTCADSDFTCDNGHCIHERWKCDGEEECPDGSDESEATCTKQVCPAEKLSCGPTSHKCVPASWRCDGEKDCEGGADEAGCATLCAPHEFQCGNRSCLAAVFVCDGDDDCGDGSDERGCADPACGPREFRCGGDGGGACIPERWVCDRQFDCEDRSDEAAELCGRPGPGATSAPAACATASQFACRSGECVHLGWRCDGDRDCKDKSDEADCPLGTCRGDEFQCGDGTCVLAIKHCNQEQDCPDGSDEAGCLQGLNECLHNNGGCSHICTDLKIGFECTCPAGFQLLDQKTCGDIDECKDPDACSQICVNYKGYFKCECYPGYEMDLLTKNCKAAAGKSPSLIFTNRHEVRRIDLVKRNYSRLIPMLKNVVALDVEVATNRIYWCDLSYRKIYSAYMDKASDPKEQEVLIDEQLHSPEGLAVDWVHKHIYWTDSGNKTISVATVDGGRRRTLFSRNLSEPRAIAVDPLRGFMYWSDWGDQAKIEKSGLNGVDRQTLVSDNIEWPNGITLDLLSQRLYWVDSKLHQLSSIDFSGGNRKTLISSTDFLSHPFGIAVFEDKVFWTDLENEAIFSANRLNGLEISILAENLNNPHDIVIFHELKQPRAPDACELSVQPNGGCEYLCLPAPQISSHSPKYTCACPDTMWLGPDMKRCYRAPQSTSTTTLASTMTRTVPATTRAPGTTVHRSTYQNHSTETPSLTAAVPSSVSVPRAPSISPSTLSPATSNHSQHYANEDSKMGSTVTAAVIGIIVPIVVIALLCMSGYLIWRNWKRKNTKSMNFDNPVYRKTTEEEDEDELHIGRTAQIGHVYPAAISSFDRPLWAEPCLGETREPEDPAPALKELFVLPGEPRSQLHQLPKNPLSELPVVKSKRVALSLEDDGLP
T1 sequence (Q14114 33-963) 2: T1 sequence (Q14114 33-963) 1
Test: ApoER2 luciferase assay (ApoER2 dimerization/clustering)
Format: cell-based
Conditions: for changes in firefly/renilla ratios in the ApoER2 luciferase assay: 10 μM concentration, 60 minutes
Text: FIG. 3 is a schematic of the ApoER2 Clustering Assay. The ApoER2 clustering assay uses the co-transfection of ApoER2 fusion proteins that express either the C- or N-terminal of the luciferase enzyme (A″) Upon Reelin fragment binding, receptor clustering results in active Luciferase and detectable fluorescence (B″). Controls included non-transfected Hek293 cells. Results are average +/−SEM; n=9-15 assays per fragment
Reelin is able to signal through ApoER2 and VLDLR by clustering the receptors. Receptor clustering results in Dab1 activation and is responsible for the modulation of LTP in wild-type acute hippocampal slices. The ApoER2 luciferase assay was used to measure ApoER2 dimerization. This system used an ApoER2-luciferase fusion protein in which ApoER2 was coupled with either the N- or C-terminus portion of luciferase. Upon receptor clustering, the N- and C-terminus portions of luciferase combined to produce a quantifiable fluorescent signal. As a control, all cells were transfected with a Renilla florescent protein that quantified the number of cells in the testing well. The ratio of luciferase florescence to Renilla florescence was used to determine the effect of small molecules. The ApoER2 luciferase assay (FIG. 3) was used to identify small molecules that mimic the actions of Reelin to activate the Reelin signaling system.
The CNS-Set Library was purchased from ChemBridge® and consisted of 35,000 small molecule compounds. The effects of each compound on Reelin signaling were tested in the absence or presence of purified Reeling with the ApoER2 luciferase assay in a 96-well plate. The assay was used to identify agonists of ApoER2 clustering and luciferase activity and was not particularly sensitive for identifying antagonists of receptor clustering.
Relact02 was tested for inducing dimerization of ApoER2 using luciferase as a reporter. Shown in FIG. 1A is a dose response curve assessing luciferase activity. Activity was determined by dimerization of two ApoER2 receptors fused with a luciferase enzyme reporter at the N- or C-terminal region. The control was a compound with structure similar to but different from Relact02. Shown in FIG. 1B is a time course for the luciferase assay using 5 μM of Relact02 or control molecule. Shown in FIG. 1C is a time course using 5 μM Relact02 alone (black bars) or in the presence of the Reelin protein (gray bars).

SMILES | changes in firefly/renilla ratios in the ApoER2 luciferase assay | activation / luciferase activity in the ApoER2 luciferase assay (compound screening, 96-well plate)
CC(C)c1ccc(/C=C/C(=O)Nc2ccc(Cl)cc2Cl)cc1 [(2)] | did not show changes | –
CC(C)c1ccc(/C=C/C(=O)Nc2cccc(Cl)c2Cl)cc1 [(3)] | did not show changes | –
CC(C)c1ccc(/C=C/C(=O)Nc2ccc(Cl)cc2)cc1 [(4)] | did not show changes | –
CC(C)c1ccc(/C=C/C(=O)Nc2ccc(I)cc2Cl)cc1 [(5)] | did not show changes | –
CCOC(=O)c1cc(C(=O)NCc2ccccc2)c(=O)[nH]c1C [Compound E02, ethyl 5-((benzylamino)carbonyl)-2-methyl-6-oxo-1,6-dihydro-3-pyridinecarboxylate, reference compound] | – | no luciferase activity
